Results from PubChem BioAssay (NCI).
“And” between values parts separate entries of the source, which are not always exact repeats. Equal values may be shown once.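 Test compounds were applied to cells in 96-well plates for 48 hours at 5 doses. GI50 is the concentration that inhibits growth by half. Definition used: TGI = concentration required for complete inhibition of growth.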

Legend:
Assay in all cases: NCI-60 cell line screen, 48 h
HCC-2998 colon = tested on: HCC-2998 colon
SK-MEL-5 melanoma = tested on: SK-MEL-5 melanoma
DU-145 prostate = tested on: DU-145 prostate
NCI-H226 lung = tested on: NCI-H226 lung
SF-539 CNS = tested on: SF-539 CNS
RPMI-8226 leukemia = tested on: RPMI-8226 leukemia
786-0 renal = tested on: 786-0 renal
T-47D breast = tested on: T-47D breast
OVCAR-8 ovarian = tested on: OVCAR-8 ovarian
UACC-257 melanoma = tested on: UACC-257 melanoma

COc1cc([N+](=O)[O-])c(S(=O)(=O)O)cc1-[n+]1nc(C(=O)Nc2ccccc2)nn1-c1ccc([N+](=O)[O-])c(S(=O)(=O)[O-])c1
TGI (HCC-2998 colon): > 100 µM | TGI (SK-MEL-5 melanoma): > 100 µM | TGI (DU-145 prostate): > 100 µM | TGI (NCI-H226 lung): > 100 µM | TGI (SF-539 CNS): > 100 µM | TGI (RPMI-8226 leukemia): > 100 µM | TGI (786-0 renal): > 100 µM | TGI (T-47D breast): > 100 µM

COc1cc(-c2ccc[nH]2)[nH]c1/C=C1\N=C(C)C(C(=O)NC(C)C)=C1C
GI50 (HCC-2998 colon): 2.87 µM | TGI (HCC-2998 colon): 13.8 µM | GI50 (SK-MEL-5 melanoma): 1340 nM | TGI (SK-MEL-5 melanoma): 2.7 µM | GI50 (DU-145 prostate): 4.7 µM | TGI (DU-145 prostate): 18.2 µM | GI50 (OVCAR-8 ovarian): 3.43 µM | TGI (OVCAR-8 ovarian): 13.5 µM | GI50 (NCI-H226 lung): 3.77 µM | TGI (NCI-H226 lung): 20.4 µM | GI50 (SF-539 CNS): 5.47 µM | TGI (SF-539 CNS): 20.2 µM | GI50 (RPMI-8226 leukemia): 2.23 µM | TGI (RPMI-8226 leukemia): 5.97 µM | GI50 (786-0 renal): 2.9 µM | TGI (786-0 renal): 11.7 µM | GI50 (UACC-257 melanoma): 2.54 µM | TGI (UACC-257 melanoma): 6.42 µM | GI50 (T-47D breast): 3.02 µM | TGI (T-47D breast): 10.7 µM

CCCCCCC1CCCCN1C(c1ccccc1)C(O)c1ccccc1 (stereo not drawn)
GI50 (HCC-2998 colon): 3.65 µM | TGI (HCC-2998 colon): 10.4 µM | GI50 (SK-MEL-5 melanoma): 2480 nM | TGI (SK-MEL-5 melanoma): 5.88 µM | GI50 (DU-145 prostate): 8.34 µM | TGI (DU-145 prostate): 20.7 µM | GI50 (OVCAR-8 ovarian): 14.8 µM | TGI (OVCAR-8 ovarian): 31.5 µM | GI50 (NCI-H226 lung): 7.74 µM | TGI (NCI-H226 lung): 21.9 µM | GI50 (SF-539 CNS): 11.6 µM | TGI (SF-539 CNS): 24.3 µM | GI50 (RPMI-8226 leukemia): 2.61 µM | TGI (RPMI-8226 leukemia): 6.08 µM | GI50 (786-0 renal): 3.97 µM | TGI (786-0 renal): 13.6 µM | GI50 (UACC-257 melanoma): 4.79 µM | TGI (UACC-257 melanoma): 18.1 µM | GI50 (T-47D breast): 4.68 µM | TGI (T-47D breast): 19.1 µM

CN(C)CC(=O)N1CCc2c([nH]c3ccccc23)C1c1cccnc1 (stereo not drawn)
TGI (HCC-2998 colon): > 100 µM | TGI (SK-MEL-5 melanoma): > 100 µM | GI50 (DU-145 prostate): > 100 µM | TGI (DU-145 prostate): > 100 µM | TGI (OVCAR-8 ovarian): > 100 µM | GI50 (NCI-H226 lung): > 100 µM | TGI (NCI-H226 lung): > 100 µM | TGI (SF-539 CNS): > 100 µM | TGI (RPMI-8226 leukemia): > 100 µM | TGI (786-0 renal): > 100 µM | TGI (UACC-257 melanoma): > 100 µM | GI50 (T-47D breast): > 100 µM | TGI (T-47D breast): > 100 µM

Nc1nc2c(ncn2C2OC(CO)C(O)C2O)c(=O)[nH]1 (stereo not drawn)
GI50 (HCC-2998 colon): 78.7 µM | TGI (HCC-2998 colon): > 100 µM and 245 µM | GI50 (SK-MEL-5 melanoma): > 100000 nM | TGI (SK-MEL-5 melanoma): > 100 µM and 103 µM | GI50 (OVCAR-8 ovarian): > 100 µM and 15 µM | TGI (OVCAR-8 ovarian): > 100 µM and 204 µM | TGI (NCI-H226 lung): 224 µM | GI50 (SF-539 CNS): > 100 µM | TGI (SF-539 CNS): > 100 µM and 160 µM | GI50 (RPMI-8226 leukemia): > 100 µM and 30.8 µM | TGI (RPMI-8226 leukemia): > 100 µM and 139 µM | GI50 (786-0 renal): > 100 µM | TGI (786-0 renal): > 100 µM | GI50 (UACC-257 melanoma): > 100 µM and 20.8 µM | TGI (UACC-257 melanoma): > 100 µM and 282 µM | GI50 (T-47D breast): > 100 µM | TGI (T-47D breast): > 100 µM

Cc1cc(=O)[nH]c2c1C(=O)c1c(C)cc(=O)n(C)c1C2=O
TGI (HCC-2998 colon): 0.058 µM | TGI (SK-MEL-5 melanoma): 0.0284 µM | TGI (DU-145 prostate): 0.0479 µM | TGI (OVCAR-8 ovarian): 0.207 µM | TGI (NCI-H226 lung): 0.0777 µM | TGI (SF-539 CNS): 0.0369 µM | TGI (RPMI-8226 leukemia): > 9.41 µM | TGI (786-0 renal): 0.182 µM | TGI (UACC-257 melanoma): 0.0307 µM | TGI (T-47D breast): 0.848 µM

CN1CCC(C(=O)Nc2n[nH]c3nnc(-c4ccccc4)cc23)CC1
GI50 (HCC-2998 colon): > 25 µM | TGI (HCC-2998 colon): > 25 µM | GI50 (SK-MEL-5 melanoma): 14600 nM | TGI (SK-MEL-5 melanoma): > 25 µM | GI50 (DU-145 prostate): > 25 µM | TGI (DU-145 prostate): > 25 µM | GI50 (OVCAR-8 ovarian): > 25 µM | TGI (OVCAR-8 ovarian): > 25 µM | GI50 (NCI-H226 lung): > 22.3 µM | TGI (NCI-H226 lung): > 25 µM | GI50 (SF-539 CNS): 11.7 µM | TGI (SF-539 CNS): > 25 µM | GI50 (RPMI-8226 leukemia): > 25 µM | TGI (RPMI-8226 leukemia): > 25 µM | GI50 (786-0 renal): > 25 µM | TGI (786-0 renal): > 25 µM | GI50 (UACC-257 melanoma): > 25 µM | TGI (UACC-257 melanoma): > 25 µM | GI50 (T-47D breast): > 25 µM | TGI (T-47D breast): > 25 µM
